What was measured:
[1] = target: T1, human metabotropic glutamate receptor mGluR5 (Homo sapiens, UniProt P41594); experiment: Cytosolic calcium studies with stably transfected cells (h5CHO), functional assay of mGluR5 receptors; assay type: cell-based; settings: Table A1; for h left shift: left shift of agonist EC50, dose response curves in the presence of 10 µM modulator or vehicle, h5CHO cells; for EC50: positive modulators, h5CHO cells preincubated with modulator, stimulated by an EC20 concentration of L-glutamate, read-out: hEC50
T1 construct: expressed in transfected cells; host or cells: CHO-K1 (h5CHO), IPTG-inducible
Description: Chinese hamster ovary cells (CHO-K1 cells), stably transfected for inducible expression of a human metabotropic glutamate receptor mGluR5 to form a cell line called h5CHO, are seeded into black clear bottom 96 well plates at a density of 35.000 cells per well. The standard growth medium used (Dulbecco's modified Eagle Medium, DMEM plus L-proline) contains the appropriate inducer isopropyl-β-D-thiogalactopyranosid (IPTG) to achieve optimal receptor expression. One day after seeding the growth medium is exchanged for reconstituted Ca-Kit (Molecular Devices, USA) and incubated for one hour. Ca-Kit is reconstituted in an assay buffer containing 20 mM HEPES pH 7.4, glutamic-pyruvate transaminase, pyridoxal phosphate and sodium pyruvate in Hank's balanced salt solution (HBBS). Agonistic compounds to the receptor elicit increases in cytosolic calcium which can be measured as increases in fluorescence signals by use of a fluorescence imaging plate reader (Molecular Devices). To analyze their potency to negatively modulate the Ca-response test compounds, dissolved in a final DMSO concentration of 0.5%, are added on-line 5 minutes before the agonist to the receptor (L-quisqualic acid at a concentration giving ~80% of the maximal signal). EC50 values for positive allosteric modulators were determined by stimulating the cells which have been preincubated the modulators by an EC20 concentration of L-glutamate.
(§1) The fluorescence signal increase after addition of agonist reflects the increase of cytosolic calcium. Inconsistencies in the amount of cells per well are normalised by using the spatial uniformity correction of the FLIPR operating software Screenworks. The mean of replicated temporal data (n=3-5) is calculated and used for graphical representation. For the evaluation of the pharmacology, the calcium changes in response to different concentrations of agonist or antagonist are determined using a maximum minus minimum (MaxMin) calculation.
(§2) All responses (RFU-values) are determined as percentage of control (= maximum response). EC50 and IC50 are calculated according the logistic equation using XLFit (IDBS, UK) or Prism 4.0 (GraphPad Software, USA). The compounds of the present invention have a potency (EC50 or IC50) within a range of about 0.5 nM to about 100 µM. The left shifts for positive or slient allosteric modulators (PAMs or SAMs, respectively) are determined by comparison of EC50 values from agonist dose response curves run in the presence of 10 µM modulator or vehicle (Vanejevs et al., J. Med. Chem., 2008, 51, 634-647).

mGluR5 receptors = target: T2, mGluR5 receptors (Rattus norvegicus, UniProt P31424); experiment: Cytosolic calcium studies with astrocytes (FLIPR), functional assay of mGluR5 receptors; assay type: cell-based; settings: for r left shift: Table A1, left shift of quisqualate EC50 in the presence and absence of 10 µM modulator; for EC50: Table A1, positive modulators, fixed concentration of quisqualate (normally 10-30 nM), read-out: rEC50
T2 construct: Primary astrocyte cultures are prepared from cortices of newborn rats; endogenous in cells; host or cells: primary cortical astrocytes from Sprague-Dawley rat pups (2-4 d old)
Description: Primary astrocyte cultures are prepared from cortices of newborn rats as described by Booher and Sensenbrenner (1972, Neurobiology 2(3):97-105). Briefly, Sprague-Dawley rat pups (2 - 4 d old) are decapitated and neocortices are dissected, disintegrated with a nylon filter (pore size 80 µm) and carefully triturated. The cell suspension is plated on poly-D-lysine pre-coated flasks (Costar, Netherlands) and cultivated in Dulbecco's Modified Eagle's Medium (DMEM, Invitrogen, Germany) supplemented with 10% foetal calf serum (FCS, Sigma, Germany), 4 mM glutamine and 50 µg/ml gentamycin (both Biochrom, Germany) at 37°C in a humidified atmosphere of 5% CO2/ 95% air for 7 days with exchanging the medium at day 2 and 6.
After 7 days in vitro (DIV), cells are shaken overnight at 250 rpm to remove oligodendrocytes and microglia. The next day, astrocytes are rinsed twice with CMF-PBS (calcium- and magnesium-free phosphate buffered saline, Biochrom, Germany), trypsinized and subplated on poly-D-lysine pre-coated 96-well plates (Greiner, Germany) at a density of 40,000 cells/well. 24 h after establishing the secondary culture the astrocytes are rinsed with PBS^++ (phosphate buffered saline, Biochrom, Germany) and fed with astrocyte-defined medium (ADM) consisting of DMEM containing 1x G5-supplement (Invitrogen, Germany), 0.5 µg/ml heparan sulfate, and 1.5 µg/ml fibronectin (both Sigma, Germany) (Miller et al., (1993) Brain Res. 618(1):175-8). 3 days later the medium is exchanged and the cells incubated for another 2-3 days, so that at the time of experiments astrocytes are 14-15 DIV.
The increase of cytosolic calcium after stimulation with the mGluR5 agonist L-quisqualate is measured using a fluorometric imaging plate reader (FLIPR) and the Ca-Kit (both Molecular Devices). Prior to addition of agonist or antagonist the medium is aspirated and cells are loaded for 2 h at RT with 150 µl of loading buffer consisting of Ca-sensitive dye reconstituted in sodium chloride (123 mM), potassium chloride (5.4 mM), magnesium chloride (0.8 mM), calcium chloride (1.8 mM), D-glucose (15 mM), and HEPES (20 mM), pH 7.3. Subsequently, plates are transferred to FLIPR to detect calcium increase with the addition of L-quisqualate (100 nM) measured as relative fluorescence units (RFU). If antagonists are tested, these compounds are pre-incubated for 10 minutes at RT before addition of the respective agonist.
For positive modulators, concentration-response curves for quisqualate are performed in the presence and absence of 10 µM modulator to determine the extent of potentiation / agonist potency increase. Thereafter, concentration-response curves for the positive modulator are performed in the presence of a fixed concentration of quisqualate showing the biggest window for potentiation (normally 10-30 nM).
as §1, §2

T1 sequence (P41594 21-1212): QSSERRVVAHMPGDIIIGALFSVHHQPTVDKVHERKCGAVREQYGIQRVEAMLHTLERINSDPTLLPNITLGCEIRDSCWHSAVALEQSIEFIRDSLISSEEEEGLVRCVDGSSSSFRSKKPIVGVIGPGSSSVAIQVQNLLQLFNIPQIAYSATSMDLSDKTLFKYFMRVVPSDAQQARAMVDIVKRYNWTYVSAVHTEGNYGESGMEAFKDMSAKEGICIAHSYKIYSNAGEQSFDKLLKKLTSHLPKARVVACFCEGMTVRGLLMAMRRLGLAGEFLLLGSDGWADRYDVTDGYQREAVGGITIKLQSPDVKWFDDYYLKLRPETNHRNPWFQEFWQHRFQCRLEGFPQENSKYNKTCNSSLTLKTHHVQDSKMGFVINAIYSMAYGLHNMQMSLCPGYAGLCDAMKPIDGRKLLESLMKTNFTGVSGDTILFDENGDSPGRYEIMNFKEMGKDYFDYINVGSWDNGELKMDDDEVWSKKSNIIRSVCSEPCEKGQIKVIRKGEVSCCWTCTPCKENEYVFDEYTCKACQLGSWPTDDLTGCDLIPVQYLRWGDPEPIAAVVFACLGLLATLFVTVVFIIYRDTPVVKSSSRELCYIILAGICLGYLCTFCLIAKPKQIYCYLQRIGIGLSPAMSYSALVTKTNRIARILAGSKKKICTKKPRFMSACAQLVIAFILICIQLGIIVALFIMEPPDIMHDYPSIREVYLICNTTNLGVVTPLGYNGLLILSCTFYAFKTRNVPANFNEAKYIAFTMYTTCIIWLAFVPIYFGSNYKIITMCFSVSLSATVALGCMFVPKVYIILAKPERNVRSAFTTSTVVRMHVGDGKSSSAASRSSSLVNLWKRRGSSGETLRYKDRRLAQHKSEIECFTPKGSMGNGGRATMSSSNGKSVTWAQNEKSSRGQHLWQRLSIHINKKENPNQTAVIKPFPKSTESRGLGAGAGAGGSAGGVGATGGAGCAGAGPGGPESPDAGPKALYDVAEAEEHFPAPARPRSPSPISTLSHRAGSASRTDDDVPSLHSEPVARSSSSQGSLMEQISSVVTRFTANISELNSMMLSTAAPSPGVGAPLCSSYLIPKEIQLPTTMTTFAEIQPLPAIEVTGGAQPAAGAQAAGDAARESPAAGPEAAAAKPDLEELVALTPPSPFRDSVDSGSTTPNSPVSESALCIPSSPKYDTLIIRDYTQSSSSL
T2 sequence (P31424 21-1203): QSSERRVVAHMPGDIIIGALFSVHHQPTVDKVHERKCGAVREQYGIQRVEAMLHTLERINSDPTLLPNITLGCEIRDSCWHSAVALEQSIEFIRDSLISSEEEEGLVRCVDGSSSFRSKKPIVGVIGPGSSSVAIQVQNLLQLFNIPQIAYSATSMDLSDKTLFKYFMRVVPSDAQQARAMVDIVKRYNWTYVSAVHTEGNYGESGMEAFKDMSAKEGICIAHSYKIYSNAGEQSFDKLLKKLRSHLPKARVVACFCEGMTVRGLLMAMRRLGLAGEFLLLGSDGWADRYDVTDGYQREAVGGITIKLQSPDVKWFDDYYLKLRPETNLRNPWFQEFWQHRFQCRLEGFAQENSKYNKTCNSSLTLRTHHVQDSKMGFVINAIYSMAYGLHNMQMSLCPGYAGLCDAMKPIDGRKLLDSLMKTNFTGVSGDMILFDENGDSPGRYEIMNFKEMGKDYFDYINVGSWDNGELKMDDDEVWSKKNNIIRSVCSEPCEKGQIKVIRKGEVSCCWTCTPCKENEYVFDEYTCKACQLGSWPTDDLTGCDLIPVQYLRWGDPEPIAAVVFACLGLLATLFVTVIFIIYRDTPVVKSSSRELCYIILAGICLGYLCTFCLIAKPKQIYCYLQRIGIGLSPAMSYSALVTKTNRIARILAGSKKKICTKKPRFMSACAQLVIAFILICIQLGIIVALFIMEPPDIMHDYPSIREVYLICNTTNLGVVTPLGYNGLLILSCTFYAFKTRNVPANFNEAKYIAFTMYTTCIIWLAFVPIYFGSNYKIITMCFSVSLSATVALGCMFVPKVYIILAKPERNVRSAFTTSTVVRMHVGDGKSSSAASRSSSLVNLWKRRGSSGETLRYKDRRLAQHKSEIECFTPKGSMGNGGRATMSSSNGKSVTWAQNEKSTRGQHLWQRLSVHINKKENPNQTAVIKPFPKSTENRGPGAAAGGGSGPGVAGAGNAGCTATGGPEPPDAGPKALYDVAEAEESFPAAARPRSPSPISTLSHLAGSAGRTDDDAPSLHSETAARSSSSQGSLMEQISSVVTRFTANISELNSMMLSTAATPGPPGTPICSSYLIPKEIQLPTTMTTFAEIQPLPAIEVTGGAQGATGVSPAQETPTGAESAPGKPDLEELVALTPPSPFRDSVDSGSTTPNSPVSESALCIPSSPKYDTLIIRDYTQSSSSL

h left shift [1]	EC50 [1] [nM]	r left shift (mGluR5 receptors)	EC50 (mGluR5 receptors) [nM]	SMILES
3.2-fold	88.6	5.2-fold	175	CCCN1CCO[C@@H]2c3cc(C#Cc4ccccc4)cnc3CC[C@@H]21 (racemic) [Example 15, (rac)-cis-9-(Phenylethynyl)-4-propyl-3,4,4a,5,6,10b-hexahydro-2H-[1,4]oxazino[2,3-f]quinoline]
2.6-fold	247	2.6-fold	613	CCCN1CCO[C@@H]2c3cc(C#Cc4ccccc4F)cnc3CC[C@@H]21 (racemic) [Example 18, (rac)-cis-9-((2-Fluorophenyl)ethynyl)-4-propyl-3,4,4a,5,6,10b-hexahydro-2H-[1,4]oxazino[2,3-f]quinoline]
1.9-fold	188	2.6-fold	323	CCCN1CCO[C@@H]2c3cc(C#Cc4cccc(F)c4)cnc3CC[C@@H]21 (racemic) [Example 19, (rac)-cis-9-((3-Fluorophenyl)ethynyl)-4-propyl-3,4,4a,5,6,10b-hexahydro-2H-[1,4]oxazino[2,3-f]quinoline]
1.8-fold	394	3.3-fold	1350	CCCN1CCO[C@@H]2c3cc(C#Cc4ccc(F)cc4)cnc3CC[C@@H]21 (racemic) [Example 20, (rac)-cis-9-((4-Fluorophenyl)ethynyl)-4-propyl-3,4,4a,5,6,10b-hexahydro-2H-[1,4]oxazino[2,3-f]quinoline]
2.2-fold	1800	1.8-fold	–	CCCN1CCO[C@H]2c3cc(C#Cc4ccccc4)cnc3CC[C@@H]21 (racemic) [Example 22, (rac)-trans-9-(Phenylethynyl)-4-propyl-3,4,4a,5,6,10b-hexahydro-2H-[1,4]oxazino[2,3-f]quinoline]
5.3-fold	4	11.7-fold	132	CC(C)CN1CCO[C@@H]2c3cc(C#Cc4ccccc4)cnc3CC[C@@H]21 (racemic) [Example 23, (rac)-cis-4-Isobutyl-9-(phenylethynyl)-3,4,4a,5,6,10b-hexahydro-2H-[1,4]oxazino[2,3-f]quinoline]
2.1-fold	65.3	4.2-fold	134	FC(F)(F)CN1CCO[C@@H]2c3cc(C#Cc4ccccc4)cnc3CC[C@@H]21 (racemic) [Example 24, (rac)-cis-9-(Phenylethynyl)-4-(2,2,2-trifluoroethyl)-3,4,4a,5,6,10b-hexahydro-2H-[1,4]oxazino[2,3-f]quinoline]
2.0-fold	36.9	3.6-fold	136	FC(F)(F)CCN1CCO[C@@H]2c3cc(C#Cc4ccccc4)cnc3CC[C@@H]21 (racemic) [Example 25, (rac)-cis-9-(Phenylethynyl)-4-(3,3,3-trifluoropropyl)-3,4,4a,5,6,10b-hexahydro-2H-[1,4]oxazino[2,3-f]quinoline]
2.9-fold	958	4.4-fold	599	COC(=O)N1CCO[C@@H]2c3cc(C#Cc4ccccc4)cnc3CC[C@@H]21 (racemic) [Example 26, (rac)-cis-Methyl 9-(phenylethynyl)-4a,5,6,10b-tetrahydro-2H-[1,4]oxazino[2,3-f]quinoline-4(3H)-carboxylate]
2.4-fold	884	3.3-fold	427	CN(C)C(=O)N1CCO[C@@H]2c3cc(C#Cc4ccccc4)cnc3CC[C@@H]21 (racemic) [Example 27, (rac)-cis-N,N-Dimethyl-9-(phenylethynyl)-4a,5,6,10b-tetrahydro-2H [1,4]oxazino[2,3-f]quinoline-4(3H)-carboxamide]
2.5-fold	472	3.3-fold	508	CC(C)(C)[S+]([O-])N1CCc2ncc(C#Cc3ccccc3)cc2C1 (racemic) [Example 37, (rac)-6-(tert-Butylsulfinyl)-3-(phenylethynyl)-5,6,7,8-tetrahydro-1,6-naphthyridine]
1.8-fold	–	–	3200	O=C(N1CCC1)N1CCO[C@@H]2c3cc(C#Cc4ccccc4)cnc3CC[C@@H]21 (racemic) [Example 65, (rac)-cis-Azetidin-1-yl-(9-(phenylethynyl)-5,6-dihydro-2H-[1,4]oxazino[2,3-f]quinolin-4(3H,4aH,10bH)-yl)methanone]
2.1-fold	1310	1.7-fold	88.3	O=C1OC2(CCCc3ncc(C#Cc4cccc(F)c4)cc32)CN1c1ccccc1 (racemic) [Example 67, (rac)-3'-((3-Fluorophenyl)ethynyl)-3-phenyl-7',8'-dihydro-6'H-spiro[oxazolidine-5,5'-quinolin]-2-one]
2.7-fold	546	2.7-fold	219	COC(=O)N1C[C@H]2Cc3cc(C#Cc4cccc(F)c4)cnc3[C@H]2C1 (racemic) [Example 73, (rac)-cis-Methyl 3-((3-fluorophenyl)ethynyl)-5a,6,8,8a-tetrahydropyrrolo[3',4':4,5]cyclopenta[1,2-b]pyridine-7(5H)-carboxylate]

SMILES	h left shift [1]	EC50 [1] [nM]	r left shift (mGluR5 receptors)	EC50 (mGluR5 receptors) [nM]
COC(=O)N1C2CCC1c1cc(C#Cc3ccccc3)cnc1C2 (racemic) [Example 58, (rac)-Methyl 3-(phenylethynyl)-6,7,8,9-tetrahydro-5H-5,8-epiminocyclohepta[b]pyridine-10-carboxylate]	2.3-fold	201	3.9-fold	113
COC(=O)N1C2CCC1c1cc(C#Cc3cccc(F)c3)cnc1C2 (racemic) [Example 59, (rac)-Methyl 3-((3-fluorophenyl)ethynyl)-6,7,8,9-tetrahydro-5H-5,8-epiminocyclohepta[b]pyridine-10-carboxylate]	1.8-fold	277	3.3-fold	102

Source: patent publication EP2650284A1, “Heterocyclic derivatives as metabotropic glutamate receptor modulators” (Merz Pharma GmbH & Co. KGaA, priority 2012, dated 2013)
